{
  "source": "patent US11685726B2",
  "about": "“Pharmaceutical compositions of 6-(2-(2H-tetrazol-5-yl)ethyl)-6-fluorodecahydroisoquinoline-3-carboxylic acid and ester derivatives thereof” (Sea Pharmaceuticals LLC, priority 2020, dated 2023)",
  "key": {"[1]": {"tested_on": "6 Hz psychomotor seizure model in mice", "test": "6 Hz psychomotor seizure model in mice", "type": "in vivo, mouse", "conditions": "0.5 hours, SPHA", "text": "Adult male Carworth Farms (CF-1) mice (25-35 g) or young male Sprague-Dawley (SD) rats (100-150 g) were obtained from Charles River Laboratories Inc (Wilmington Mass. USA). CF1 mice were typically used for the 6 Hz psychomotor seizure model (6 Hz model described in the section below) but could also be used for the Maximal electroshock seizure (MES) model if performed in mice (Maximal electroshock seizure model described in the section below). SD rats were typically used for MES model but could also be used for 6 Hz psychomotor model if performed in rats. Animals were allowed free access to food and water, except during testing periods. After delivery from supplier lab to the in vivo pharmacology testing lab, animals were allowed sufficient time to acclimate to housing conditions prior to testing. Animals were housed in plastic cages in rooms with controlled humidity, ventilation, and lighting (12 hours lights on and 12 hours darkness). The animals were housed and fed in a manner consistent with the recommendations in the “Guide for Care and Use of Laboratory Animals” (National Research Council), and in accordance with guidelines set by an Institutional Animal Care and Use Committee (IACUC). Animal experiments were conducted in a manner consistent with Animal Research: Reporting of In Vivo Experiments (ARRIVE) guidelines (UK) and were approved by an IACUC. Test compounds or respective vehicle (placebo) were administered using an optimal fluid volume-to-body fluid ratio. Solutions or suspensions of test compounds, reference compounds or vehicles were administered to mice or rats in a volume of 0.01 mL/g body weight (mice) or 0.004 mL/g body weight (rats) by subcutaneous (s.c.) injection, intraperitoneal (i.p.) injection or by oral gavage (p.o.) unless otherwise indicated. Reference drug Levetiracetam or vehicle was administered by intraperitoneal (i.p.) injection.\nMice are given a topical anesthetic on the cornea of each eye prior to placement of corneal electrodes. 6 Hz psychomotor seizures were induced in mice (usually 8 animals per group) using electrical stimulation via corneal electrodes (6 Hz, 0.2 millisecond rectangular pulse, 3 second duration at 22 mA using a Grass 48 stimulator instrument as described in Barton M E et al 2001. Epilepsy Res 47:217-227). Prior to placement of corneal electrodes for electrical stimulation 0.5% tetracaine in saline (Sigma) drops were applied to each eye. Seizures and behaviors that arise from the electrical stimulus in the 6 Hz model include a minor clonic seizure phase followed by stereotyped automatistic behaviors including stun, forelimb clonus, twitching of the vibrissae and Straub-tail. […] Animals not presenting any of these behaviors were considered “protected” from seizures. This serves as a screen for in vivo pharmacological activity of test articles or reference anti-epilepsy drugs and defines anti-seizure activity as shown in several publications [Barton M E et al. 2001. Epilepsy Res. 47:217-227; Barton M E et al. 2003 Epilepsy Res. 56:17-26; Brown W C et al. 1953. J Pharmacol Exp Ther 107:273-283. Metcalf C S et al. 2017a. Epilepsia 58:484-493.; Metcalf C S et al. 2017c. Epilepsia 58:239-246.\nUnless otherwise indicated pretreatment times of mice or rats were typically 0.5 hours for respective vehicle, Compounds 1, 3, 4, 6 or other compounds administered by subcutaneous or intraperitoneal route (unless other times indicated). A pretreatment time of 1 hour was used for Compounds 3, 4, 6 or other compounds administered by oral route unless other times indicated. Test compounds or respective vehicles were tested in some cases at other pretreatment times as indicated. A median effective dose (ED50) and 95% confidence interval (CI) were calculated using a Prism (Graphpad software). […]"}, "[2]": {"test": "In vitro stability in physiological buffers with or without fatty acid free BSA", "type": "physicochemical", "conditions": "30 minutes at 37 degrees C"}, "[3]": {"test": "Irwin neurological test battery in rats (SAD and MAD studies)", "type": "in vivo, rat", "method": "Rats were subjected to the Irwin Test Procedure of in vivo assessment of test compounds effects on neurological functions in rodents which was modified for rats. Rats were acclimated to the procedure room for at least 30 minutes. Rats were assessed for the features described below. Each rat was scored on a 0 to 3 scale with 0 representing the response in a normal animal and 3 representing a maximally impaired animal. Note that it is normal for an animal to score within the 0 to 1 range during Irwin testing. Animals were tested 55-60 min after test compound administration. Reference: Irwin, S. 20 Sep. 1968; “Comprehensive observational assessment: la. A symptomatic quantitative procedure for assessing the behavioral and physiologic state of the mouse” Psychopharmacologia 13(3): 222-257.\nSingle Ascending Dose (SAD) 1-day acute administration of test compound 2 by the oral PO route of administration to rats and samples collected at the timepoints described for subsequent extraction, dissolution and quantitative LCMS bioanalysis. […]\nMultiple Ascending Dose (MAD) 5-day once daily administration of test compounds was done to rats and samples collected at the timepoints described for subsequent extraction, dissolution and quantitative LCMS bioanalysis. […]"}},
  "data": [
    {"smiles": "O=C(O)[C@@H]1C[C@H]2C[C@@](F)(CCc3nnn[nH]3)CC[C@H]2CN1", "note": "[Compound 1, (3S,4aS,6S,8aR)-6-fluoro-6-[2-(1H-1,2,3,4-tetrazol-5-yl)ethyl]-decahydroisoquinoline-3-carboxylic acid]", "values": [
      {"measurement": "6 Hz Test Results (# mice protected from seizure/# mice tested)", "setting": "[1]; 0.3 mg/kg s.c.", "value": "1/8"},
      {"measurement": "6 Hz Test Results (# mice protected from seizure/# mice tested)", "setting": "[1]; 0.6 mg/kg s.c.", "value": "3/8"},
      {"measurement": "6 Hz Test Results (# mice protected from seizure/# mice tested)", "setting": "[1]; 1 mg/kg s.c.", "value": "3/8"},
      {"measurement": "6 Hz Test Results (# mice protected from seizure/# mice tested)", "setting": "[1]; 3 mg/kg s.c.", "value": "5/8"},
      {"measurement": "6 Hz Test Results (# mice protected from seizure/# mice tested)", "setting": "[1]; 6 mg/kg s.c.", "value": "7/8"},
      {"measurement": "6 Hz Test Results (# mice protected from seizure/# mice tested)", "setting": "[1]; 10 mg/kg s.c.", "value": "8/8"}
    ]},
    {"smiles": "O=C(O)[C@@H]1C[C@H]2CC(F)(CCc3nnn[nH]3)CC[C@H]2CN1", "note": "(stereo in doubt) [Compound 2, (3S,4aS,6R,8aR)-6-fluoro-6-[2-(1H-1,2,3,4-tetrazol-5-yl)ethyl]-decahydroisoquinoline-3-carboxylic acid]", "values": [
      {"measurement": "stability in physiological buffers", "setting": "[2]", "value": "stable"},
      {"measurement": "Irwin test observations, SAD study", "setting": "[3]; oral 10-200 mg/kg, day 1, 55-60 minutes post treatment", "value": "Normal or very little change from normal was observed for many of the doses"},
      {"measurement": "Irwin test observations, MAD study", "setting": "[3]; oral once daily 5 days, day 3 and day 5, 55-60 minutes post treatment", "value": "Normal or very little change from normal was observed for many of the doses"}
    ]}
  ]
}
